Results: the CheMixHub ionic liquid set
± gives the uncertainty stated by the source.

Test: xn = mol fraction of the nth substance listed

CCC(C)O (configuration not stated) + CCCCCC[n+]1ccn(C)c1.O=[N+]([O-])[O-]
100 kPa, x2 = 0
Conditions	viscosity [mPa·s]
293.15 K	3.67 ± 0.18
298.15 K	3.04 ± 0.15
303.15 K	2.54 ± 0.13
308.15 K	2.13 ± 0.11
313.15 K	1.8 ± 0.09
318.15 K	1.54 ± 0.08
323.15 K	1.33 ± 0.07

CCCCCC[n+]1ccn(C)c1.[Cl-] + CCCCCO
101 kPa
Conditions	viscosity [mPa·s]
293.15 K, x1 = 0.0088	4.33 ± 0.09
293.15 K, x2 = 0.849	10.53 ± 0.22
303.15 K, x1 = 0.0042	3.1 ± 0.07
303.15 K, x1 = 0.0166	3.41 ± 0.07
303.15 K, x2 = 0.1514	1675 ± 100
313.15 K, x1 = 0.0042	2.37 ± 0.05
313.15 K, x2 = 0.2971	259.6 ± 8.7
313.15 K, x2 = 0.8012	8.12 ± 0.17
323.15 K, x2 = 0	783 ± 38
323.15 K, x2 = 0.8012	6.29 ± 0.14
333.15 K, x2 = 0.7018	9.13 ± 0.2

CCCC[N+]1(C)CCCCC1.F[P-](F)(F)(F)(F)F + CCCC[N+]1(C)CCCC1.F[P-](F)(F)(F)(F)F
102 kPa
Conditions	viscosity [mPa·s]
353.15 K, x1 = 0.5	154 ± 16
383.15 K, x1 = 0.3	41 ± 4

NC(N)=NCCC[C@H](N)C(=O)O + CCCC[N+](C)(CCCC)CCCC.[Cl-] + O
viscosity [mPa·s], 101.3 kPa
Conditions	293.15 K	298.15 K	303.15 K	308.15 K	313.15 K
x1 = 0.0003636, x2 = 0.00072	1.06 ± 0.1	0.94 ± 0.1	0.85 ± 0.1	0.76 ± 0.1	0.69 ± 0.1
x1 = 0.0003667, x2 = 0.001439	1.1 ± 0.1	0.98 ± 0.1	0.88 ± 0.1	0.79 ± 0.1	0.72 ± 0.1
x1 = 0.0007271, x2 = 0.0007198	1.07 ± 0.1	0.95 ± 0.1	0.86 ± 0.1	0.78 ± 0.1	0.7 ± 0.1
x1 = 0.0007335, x2 = 0.001438	1.11 ± 0.1	0.99 ± 0.1	0.89 ± 0.1	0.8 ± 0.1	0.73 ± 0.1
x1 = 0.001088, x2 = 0.0007195	1.08 ± 0.1	0.97 ± 0.1	0.87 ± 0.1	0.79 ± 0.1	0.71 ± 0.1
x1 = 0.001096, x2 = 0.001438	1.12 ± 0.1	1 ± 0.1	0.9 ± 0.1	0.82 ± 0.1	0.75 ± 0.1
x1 = 0.001452, x2 = 0.0007192	1.1 ± 0.1	0.98 ± 0.1	0.88 ± 0.1	0.8 ± 0.1	0.72 ± 0.1
x1 = 0.001464, x2 = 0.001437	1.13 ± 0.1	1.01 ± 0.1	0.91 ± 0.1	0.83 ± 0.1	0.76 ± 0.1
x1 = 0.001809, x2 = 0.001437	1.15 ± 0.1	1.02 ± 0.1	0.92 ± 0.1	0.84 ± 0.1	0.77 ± 0.1
x1 = 0.001816, x2 = 0.000719	1.11 ± 0.1	0.99 ± 0.1	0.89 ± 0.1	0.81 ± 0.1	0.73 ± 0.1
x1 = 0.002177, x2 = 0.0007187	1.12 ± 0.1	1 ± 0.1	0.9 ± 0.1	0.82 ± 0.1	0.75 ± 0.1
x1 = 0.002195, x2 = 0.001436	1.16 ± 0.1	1.04 ± 0.1	0.94 ± 0.1	0.85 ± 0.1	0.78 ± 0.1
x1 = 0.002535, x2 = 0.0007185	1.13 ± 0.1	1.02 ± 0.1	0.92 ± 0.1	0.84 ± 0.1	0.76 ± 0.1
x1 = 0.00256, x2 = 0.001436	1.17 ± 0.1	1.05 ± 0.1	0.95 ± 0.1	0.87 ± 0.1	0.79 ± 0.1

CC[n+]1ccn(C)c1.O=S(=O)([O-])C(F)(F)C(F)F + CCCC[n+]1ccc(C)cc1.O=S(=O)([N-]S(=O)(=O)C(F)(F)F)C(F)(F)F
100 kPa
Conditions	viscosity [mPa·s]
293.15 K, x2 = 0.2211	111.1 ± 3.9
293.15 K, x2 = 0.3324	106.5 ± 3.6
293.15 K, x2 = 0.4432	101 ± 3.3
293.15 K, x2 = 0.774	84.5 ± 2.5
303.15 K, x2 = 0.3324	66.1 ± 1.7
303.15 K, x2 = 0.9517	47.6 ± 1.2
313.15 K, x2 = 0.0504	47.7 ± 1.2
313.15 K, x2 = 0.112	47 ± 1.2
313.15 K, x2 = 0.4432	41.7 ± 1.1
313.15 K, x2 = 0.6631	37.5 ± 1
323.15 K, x2 = 0.4432	29.2 ± 0.7
333.15 K, x2 = 0.4432	21.5 ± 0.6
333.15 K, x2 = 0.5529	20.3 ± 0.5
333.15 K, x2 = 0.6631	19.5 ± 0.5
343.15 K, x2 = 0.0504	18.2 ± 0.5
353.15 K, x2 = 0.774	10.9 ± 0.3
353.15 K, x2 = 0.8828	10.3 ± 0.3
